Test results reported in ChEMBL document CHEMBL6092168, “Identification of novel indolinone derivatives as CTSC inhibitors to treat inflammatory bowel disease by modulating inflammatory factors” (Eur J Med Chem, 2024).
The source made the active and inactive calls. The rule behind the calls is not given here.

Key:
RAW264.7 [1] = experiment: Anti-inflammatory activity in mouse RAW264.7 cells assessed as inhibition of LPS-induced NO production preincubated for 1 hr followed by LPS addition and measured after 24 hrs by Griess reagent based assay; assay type: functional, cell-based
RAW264.7 [2] = experiment: Anti-inflammatory activity in mouse RAW264.7 cells assessed as inhibition of LPS-induced IL-1beta production at 5 uM preincubated for 1 hr followed by LPS addition and measured after 24 hrs by ELISA relative to control; assay type: functional; design: scale not given: the % may be the effect or the level left
RAW264.7 [3] = experiment: Anti-inflammatory activity in mouse RAW264.7 cells assessed as inhibition of LPS-induced TNF-alpha production at 5 uM preincubated for 1 hr followed by LPS addition and measured after 24 hrs by ELISA relative to control; assay type: functional; design: scale not given: the % may be the effect or the level left
Dipeptidyl peptidase 1 [4] = biological target: T1, Dipeptidyl peptidase 1 (Homo sapiens, UniProt P53634); experiment: Inhibition of Cathepsin C in human U-937 cells using H-Gly-Arg-AMC as substrate at 10 uM incubated for 5 days by fluorescence based microplate reader analysis relative to control; assay type: cell-based; conditions: time 5.0 day
[5] = biological target: T2, Cathepsin G (Homo sapiens) (UniProt P08311); experiment: Inhibition of Cathepsin G in human U-937 cells using N-Suc-Ala-Ala-Pro-Phe-pNA as substrate at 10 uM incubated for 5 days by […] based microplate reader analysis relative to control; assay type: cell-based; conditions: time 5.0 day
T2 sequence (whole entry): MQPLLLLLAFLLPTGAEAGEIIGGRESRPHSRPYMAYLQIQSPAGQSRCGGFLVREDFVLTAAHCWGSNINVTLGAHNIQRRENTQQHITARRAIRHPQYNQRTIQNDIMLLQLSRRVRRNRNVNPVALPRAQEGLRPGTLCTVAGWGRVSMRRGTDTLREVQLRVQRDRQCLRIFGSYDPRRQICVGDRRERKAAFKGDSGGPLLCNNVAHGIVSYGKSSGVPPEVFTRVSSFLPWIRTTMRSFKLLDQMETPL

[6] = biological target: T3, Neutrophil elastase (Homo sapiens) (UniProt P08246); experiment: Inhibition of neutrophil elastase in human U-937 cells using N-MeSuc-Ala-Pro-Val-pNA as substrate at 10 uM incubated for 5 days by […] based microplate reader analysis relative to control; assay type: cell-based; conditions: time 5.0 day
T3 sequence (whole entry): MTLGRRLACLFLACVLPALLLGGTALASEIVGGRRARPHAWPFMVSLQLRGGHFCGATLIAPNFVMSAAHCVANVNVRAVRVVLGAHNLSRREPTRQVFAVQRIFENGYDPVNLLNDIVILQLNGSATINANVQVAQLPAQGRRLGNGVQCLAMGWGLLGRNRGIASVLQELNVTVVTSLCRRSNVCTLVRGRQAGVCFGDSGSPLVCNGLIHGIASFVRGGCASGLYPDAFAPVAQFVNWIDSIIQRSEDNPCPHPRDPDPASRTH

[7] = biological target: T4, Myeloblastin (Homo sapiens) (UniProt P24158); experiment: Inhibition of proteinase 3 in human U-937 cells using aminobenzoyl-Val-Ala-Asp-Cys-Ala-Asp-Gln-ethylenediamine 2,4-dinitrophenyl as substrate at 10 uM incubated for 5 days by fluorescence based microplate reader analysis relative to control; assay type: cell-based; conditions: time 5.0 day
T4 sequence (whole entry): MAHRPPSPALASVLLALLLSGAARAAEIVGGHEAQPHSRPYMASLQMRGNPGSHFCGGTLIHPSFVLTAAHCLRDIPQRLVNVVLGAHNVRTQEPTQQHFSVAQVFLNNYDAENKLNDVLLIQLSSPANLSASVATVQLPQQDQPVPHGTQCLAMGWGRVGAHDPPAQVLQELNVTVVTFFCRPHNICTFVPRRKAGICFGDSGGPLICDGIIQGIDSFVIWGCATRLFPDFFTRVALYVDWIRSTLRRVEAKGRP

Mus musculus [8] = experiment: Anti-inflammatory activity in DSS-induced ulcerative colitis C57BL/6 mouse model assessed as effect on Cathepsin C activity at 60 mg/kg, administered twice daily; assay type: functional, organism-based
Mus musculus [9] = experiment: Anti-inflammatory activity in DSS-induced ulcerative colitis C57BL/6 mouse model assessed as effect on neutrophil serine proteases level at 60 mg/kg, administered twice daily; assay type: functional, organism-based
Dipeptidyl peptidase 1 [10] = biological target: T1, Dipeptidyl peptidase 1; experiment: Inhibition of human recombinant Cathepsin C using Gly-Phe-AFC as substrate preincubated for 3 hrs followed by substrate addition and measured after 1 hr by fluorescence based multifunctional microplate reader analysis
Mus musculus [11] = experiment: Anti-inflammatory activity in DSS-induced ulcerative colitis male C57BL/6 mouse model assessed as reduction in Cathepsin C level in serum at 60 mg/kg administered via gavage for 10 days relative to control; assay type: functional; conditions: time 10.0 day
Mus musculus [12] = experiment: Anti-inflammatory activity in DSS-induced ulcerative colitis male C57BL/6 mouse model assessed as reduction in neutrophil elastase level in serum at 60 mg/kg administered via gavage for 10 days relative to control; assay type: functional; conditions: time 10.0 day
Mus musculus [13] = experiment: Anti-inflammatory activity in DSS-induced ulcerative colitis male C57BL/6 mouse model assessed as reduction in Cathepsin G level in serum at 60 mg/kg administered via gavage for 10 days relative to control; assay type: functional; conditions: time 10.0 day
Mus musculus [14] = experiment: Anti-inflammatory activity in DSS-induced ulcerative colitis male C57BL/6 mouse model assessed as reduction in Cathepsin C level in colon at 60 mg/kg administered via gavage for 10 days; assay type: functional; conditions: time 10.0 day
Mus musculus [15] = experiment: Anti-inflammatory activity in DSS-induced ulcerative colitis male C57BL/6 mouse model assessed as reduction in neutrophil elastase level in colon at 60 mg/kg administered via gavage for 10 days relative to control; assay type: functional; conditions: time 10.0 day
Mus musculus [16] = experiment: Anti-inflammatory activity in DSS-induced ulcerative colitis male C57BL/6 mouse model assessed as reduction in proteinase 3 level in colon at 60 mg/kg administered via gavage for 10 days relative to control; assay type: functional; conditions: time 10.0 day
Mus musculus [17] = experiment: Anti-inflammatory activity in DSS-induced ulcerative colitis male C57BL/6 mouse model assessed as reduction in Cathepsin G level in colon at 60 mg/kg administered via gavage for 10 days relative to control; assay type: functional; conditions: time 10.0 day

T1 sequence (P53634 25-134 limits assumed): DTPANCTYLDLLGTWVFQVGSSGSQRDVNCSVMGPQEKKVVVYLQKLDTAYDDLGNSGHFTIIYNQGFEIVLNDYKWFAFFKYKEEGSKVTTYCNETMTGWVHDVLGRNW
T1 sequence (P53634 231-394 limits assumed): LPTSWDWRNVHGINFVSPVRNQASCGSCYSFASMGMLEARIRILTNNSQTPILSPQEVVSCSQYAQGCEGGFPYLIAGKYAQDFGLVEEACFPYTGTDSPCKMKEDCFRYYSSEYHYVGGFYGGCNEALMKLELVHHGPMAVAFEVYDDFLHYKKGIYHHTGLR
T1 sequence (P53634 395-463 limits assumed): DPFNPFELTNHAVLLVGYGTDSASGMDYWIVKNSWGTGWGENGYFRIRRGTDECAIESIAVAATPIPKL

| IC50 (RAW264.7 [1]) [nM] | IC50 (Dipeptidyl peptidase 1 [10]) [nM] | SMILES | Activity (RAW264.7 [2]; time 25 hrs) [%] | Activity (RAW264.7 [3]; time 25 hrs) [%] | Activity (RAW264.7 [2]; time 25.0 hrs) | Activity (RAW264.7 [3]; time 25.0 hrs) | also measured |
| --- | --- | --- | --- | --- | --- | --- | --- |
| 6700 |  | Cn1c(=O)oc2ccc(-c3ccc(C[C@@H](C#N)NC(=O)[C@@H]4CNCCCO4)cc3)cc21 [BRENSOCATIB] | 70.9 | 65.1 |  |  | inhibition (Dipeptidyl peptidase 1 [4]): 10.1%; inhibition [5]: 12.1%; inhibition [6]: 8.29%; inhibition [7]: 16.7%; Activity (Mus musculus [8]): Active; Activity (Mus musculus [9]): Active |
| > 50000 | 486 | COc1cccc(NC(=O)c2cccc(-c3ccc(CN4CCOCC4)cc3)c2)c1 | 25.5 | 20.4 |  |  |  |
| 14500 | 660 | CN(C)Cc1ccc(-c2cccc3c2NC(=O)/C3=C\c2ccnc3ccccc23)cc1 |  |  | inactive | inactive |  |
| 2900 | 302 | O=C(Nc1ccc2ccccc2c1)c1cccc(-c2ccc(CN3CCOCC3)cc2)n1 | 69.3 | 57.4 |  |  |  |
| > 50000 | > 1000 | O=C1Nc2c(cccc2-c2ccc(OC(F)(F)F)cc2)/C1=C/c1ccnc2ccccc12 |  |  | inactive | inactive |  |
| 2900 | 273 | O=C(Nc1ccnc2ccccc12)c1cccc(-c2ccc(CN3CCOCC3)cc2)n1 | 70.2 | 62.2 |  |  |  |
| > 50000 | 377 | O=C(Nc1cccc(Cl)c1)c1cccc(-c2ccc(CN3CCOCC3)cc2)c1 | 40.2 | 35.5 |  |  |  |
|  |  | Nc1ccc(O)c(C(=O)O)c1 |  |  |  |  | Activity (Mus musculus [11]): Active; Activity (Mus musculus [12]): Active; Activity (Mus musculus [13]): Active; Activity (Mus musculus [14]): Active; Activity (Mus musculus [15]): Active; Activity (Mus musculus [16]): Active; Activity (Mus musculus [17]): Active |
| 8100 | 493 | Nc1ccc(-c2cccc3c2NC(=O)/C3=C\c2ccnc3ccccc23)cc1 |  |  | inactive | inactive |  |
| > 50000 | 244 | O=C(Nc1nccc2ccccc12)c1cccc(-c2ccc(CN3CCOCC3)cc2)n1 |  |  | inactive | inactive |  |
| > 50000 | > 1000 | O=C(Nc1cccc(F)c1)c1cccc(-c2ccc(CN3CCOCC3)cc2)c1 |  |  | inactive | inactive |  |
| 16100 | 360 | NC(=O)c1cccc(NC(=O)c2cccc(-c3ccc(CN4CCOCC4)cc3)c2)c1 | 35.6 | 41.9 |  |  |  |
| > 50000 | > 1000 | CNC(=O)c1ccccc1NC(=O)c1cccc(-c2ccc(CN3CCOCC3)cc2)c1 |  |  | inactive | inactive |  |
| > 50000 | > 1000 | CNC(=O)c1cccc(NC(=O)c2cccc(-c3ccc(CN4CCOCC4)cc3)c2)c1 |  |  | inactive | inactive |  |
| > 50000 | > 1000 | NC(=O)c1ccc(NC(=O)c2cccc(-c3ccc(CN4CCOCC4)cc3)c2)cc1 |  |  | inactive | inactive |  |
| 15700 | 237 | O=C(Nc1ccc(O)cc1)c1cccc(-c2ccc(CN3CCOCC3)cc2)c1 | 38.6 | 40.8 |  |  |  |
| 14800 | 311 | O=C1Nc2c(cccc2-c2ccc3cn[nH]c3c2)/C1=C/c1ccnc2ccccc12 | 65.3 | 43.3 |  |  |  |
| > 50000 | 770 | CC(=O)Nc1ccc(NC(=O)c2cccc(-c3ccc(CN4CCOCC4)cc3)c2)cc1 |  |  | inactive | inactive |  |
| > 50000 | > 1000 | Nc1cccc(NC(=O)c2cccc(-c3ccc(CN4CCOCC4)cc3)c2)c1 |  |  | inactive | inactive |  |
| > 50000 | > 1000 | O=C1Nc2c(cccc2-c2ccc(Cl)cc2)/C1=C/c1ccnc2ccccc12 |  |  | inactive | inactive |  |
| > 50000 | > 1000 | O=C(Nc1ccc(C(F)(F)F)cc1)c1cccc(-c2ccc(CN3CCOCC3)cc2)c1 |  |  | inactive | inactive |  |
| 8600 | 182 | O=C1Nc2c(cccc2-c2ccc(C(=O)N3CCOCC3)cc2)/C1=C/c1ccnc2ccccc12 | 65.2 | 58.1 |  |  |  |
| > 50000 | > 1000 | Cc1ccc(NC(=O)c2cccc(-c3ccc(CN4CCOCC4)cc3)c2)cc1 |  |  | inactive | inactive |  |
| > 50000 | > 1000 | O=C(Nc1ccccc1F)c1cccc(-c2ccc(CN3CCOCC3)cc2)c1 |  |  | inactive | inactive |  |
| > 50000 | > 1000 | O=C1Nc2c(cccc2-c2ccc(C(F)(F)F)cc2)/C1=C/c1ccnc2ccccc12 |  |  | inactive | inactive |  |
| > 50000 | > 1000 | O=C1Nc2c(cccc2-c2ccccc2)/C1=C/c1ccnc2ccccc12 |  |  | inactive | inactive |  |
| 9400 | 240 | O=C(Nc1ccnc2ccccc12)c1cccc(-c2ccc(CN3CCOCC3)cc2)c1 | 75.7 | 70.6 |  |  |  |
